Results reported in ChEMBL document CHEMBL4732221, “Design, synthesis and bioactivity evaluation of novel pyrazole linked phenylthiazole derivatives in context of antibacterial activity” (Bioorg Med Chem Lett, 2021).
Converted amounts (≈) assume the structure as drawn. The source made the active and inactive calls. The rule behind the calls is not given here.

Key:
Format in all cases: functional
[1] = tested on: Acinetobacter baumannii; experiment: Antibacterial activity against Acinetobacter baumannii ATCC 19606 assessed as growth inhibition after 18 hrs by monochromator plate assay
[2] = tested on: Pseudomonas aeruginosa; experiment: Antibacterial activity against Pseudomonas aeruginosa ATCC 27853 assessed as growth inhibition after 18 hrs by monochromator plate assay
[3] = tested on: Klebsiella pneumoniae; experiment: Antibacterial activity against Klebsiella pneumoniae ATCC 700603 assessed as growth inhibition after 18 hrs by monochromator plate assay
[4] = tested on: Escherichia coli; experiment: Antibacterial activity against Escherichia coli ATCC 25922 assessed as growth inhibition after 18 hrs by monochromator plate assay
[5] = tested on: Staphylococcus aureus; experiment: Antibacterial activity against methicillin-resistant Staphylococcus aureus ATCC 43300 assessed as growth inhibition after 18 hrs by monochromator plate assay
[6] = tested on: Cryptococcus neoformans; experiment: Antifungal activity against Cryptococcus neoformans var. grubii ATCC 208821 assessed as growth inhibition at 32 ug/ml after 36 hrs by monochromator plate assay relative to control; conditions: dose 32.0 µg/ml
[7] = tested on: Candida albicans; experiment: Antifungal activity against Candida albicans ATCC 90028 assessed as growth inhibition at 32 ug/ml after 36 hrs by monochromator plate assay relative to control; conditions: for inhibition: dose 32.0 µg/ml
[8] = tested on: Acinetobacter baumannii; experiment: Antibacterial activity against Acinetobacter baumannii ATCC 19606 assessed as growth inhibition at 32 ug/ml after 18 hrs by monochromator plate assay relative to control; conditions: for inhibition: dose 32.0 µg/ml
[9] = tested on: Pseudomonas aeruginosa; experiment: Antibacterial activity against Pseudomonas aeruginosa ATCC 27853 assessed as growth inhibition at 32 ug/ml after 18 hrs by monochromator plate assay relative to control; conditions: for inhibition: dose 32.0 µg/ml
[10] = tested on: Klebsiella pneumoniae; experiment: Antibacterial activity against Klebsiella pneumoniae ATCC 700603 assessed as growth inhibition at 32 ug/ml after 18 hrs by microplate reader assay relative to control; conditions: for inhibition: dose 32.0 µg/ml
[11] = tested on: Escherichia coli; experiment: Antibacterial activity against Escherichia coli ATCC 25922 assessed as growth inhibition at 32 ug/ml after 18 hrs by monochromator plate assay relative to control; conditions: for inhibition: dose 32.0 µg/ml
[12] = tested on: Staphylococcus aureus; experiment: Antibacterial activity against methicillin-resistant Staphylococcus aureus ATCC 43300 assessed as growth inhibition at 32 ug/ml after 18 hrs by monochromator plate assay relative to control
[13] = tested on: Candida albicans; experiment: Antifungal activity against Candida albicans ATCC 90028 assessed as growth inhibition after 36 hrs by monochromator plate assay
[14] = tested on: Cryptococcus neoformans; experiment: Antifungal activity against Cryptococcus neoformans var. grubii ATCC 208821) assessed as growth inhibition after 36 hrs by monochromator plate assay relative to control

Compound	MIC [1]	MIC [2]	MIC [3]	MIC [4]	MIC [5] [µg/mL]	inhibition [6]	inhibition at 32 µg/mL [7] [%]	inhibition [8]	inhibition at 32 µg/mL [9] [%]	inhibition at 32 µg/mL [10] [%]	inhibition [11]	inhibition at 32 µg/mL [12] [%]	MIC [13]	MIC [14]	inhibition at 32 µg/mL [8] [%]	inhibition [9]	inhibition at 32 µg/mL [11] [%]	inhibition [7]	inhibition [10]	inhibition ([12]; dose 32.0 µg/ml)
Cc1nc(-c2ccc(I)cc2)sc1-c1cc(C(=O)Nc2ccccc2)n[nH]1	inactive	> 32 µg/mL	> 32 µg/mL	inactive	> 32	inactive	4.6	inactive	11.1	4.7	inactive	19	> 32 µg/mL	inactive						
Cc1nc(-c2ccc(-c3ccccc3)cc2)sc1-c1cc(C(=O)Nc2cccc3ccccc23)n[nH]1	> 32 µg/mL	> 32 µg/mL	> 32 µg/mL	inactive	> 32	inactive	5.1		8.2	8.9	inactive	14.2	> 32 µg/mL	inactive	0.9					
Cc1nc(-c2ccc(I)cc2)sc1-c1cc(C(=O)O)n[nH]1	> 32 µg/mL	inactive	> 32 µg/mL	> 32 µg/mL	> 32	inactive	25.5			12		31.8	> 32 µg/mL	inactive	6.6	inactive	27.5			
OC(Cn1cncn1)(Cn1cncn1)c1ccc(F)cc1F [FLUCONAZOLE]						inactive							0.125 µg/mL (≈ 0.408 µM)	8 µg/mL (≈ 26.1 µM)				inactive		
Cc1nc(-c2ccc(-c3ccccc3)cc2)sc1-c1cc(C(=O)Nc2ccc(OC(F)F)cc2)n[nH]1	inactive	> 32 µg/mL	> 32 µg/mL	inactive	> 32	inactive	4.7	inactive	7.1	5	inactive	3.6	> 32 µg/mL	inactive						
COC(=O)c1cc(-c2sc(-c3ccc(I)cc3)nc2C)[nH]n1	> 32 µg/mL	> 32 µg/mL	inactive	inactive	> 32	inactive	5.1		6.6		inactive	14.2	> 32 µg/mL	inactive	4.9				inactive	
Cc1ccc(NC(=O)c2cc(-c3sc(-c4ccc(-c5ccccc5)cc4)nc3C)[nH]n2)cc1C	inactive	> 32 µg/mL	> 32 µg/mL	inactive	> 32	inactive	10.1	inactive	2.2	3.5	inactive	10.8	> 32 µg/mL	inactive						
CN[C@H](CC(C)C)C(=O)N[C@H]1C(=O)N[C@@H](CC(N)=O)C(=O)N[C@H]2C(=O)N[C@H]3C(=O)N[C@H](C(=O)N[C@H](C(=O)O)c4cc(O)cc(O)c4-c4cc3ccc4O)[C@H](O)c3ccc(c(Cl)c3)Oc3cc2cc(c3O[C@@H]2O[C@H](CO)[C@@H](O)[C@H](O)[C@H]2O[C@H]2C[C@](C)(N)[C@H](O)[C@H](C)O2)Oc2ccc(cc2Cl)[C@H]1O																				inactive
Cc1nc(-c2ccc(-c3ccccc3)cc2)sc1-c1cc(C(=O)Nc2ccc(F)cc2)n[nH]1	> 32 µg/mL	> 32 µg/mL	> 32 µg/mL	inactive	> 32	inactive	19.6		5.1	4.4	inactive	15.1	> 32 µg/mL	inactive	3					
Cc1nc(-c2ccc(-c3cccc4c3OCO4)cc2)sc1-c1cc(C(=O)NC2CCCCC2)n[nH]1	inactive	> 32 µg/mL	inactive	inactive	> 32	inactive	0.9	inactive	6.2		inactive	41.2	> 32 µg/mL	inactive					inactive	
Cc1nc(-c2ccc(I)cc2)sc1-c1cc(C(=O)NC2CCCCC2)n[nH]1	inactive	> 32 µg/mL	> 32 µg/mL	inactive	> 32	inactive	40.5	inactive	17.8	6.9	inactive	12.9	> 32 µg/mL	inactive						
Cc1nc(-c2ccc(-c3ccccc3)cc2)sc1-c1cc(C(=O)Nc2ccc3c(c2)OCO3)n[nH]1	inactive	> 32 µg/mL	> 32 µg/mL	inactive	> 32	inactive	5	inactive	1.3	7.5	inactive	3.2	> 32 µg/mL	inactive						
Cc1nc(-c2ccc(-c3cccc4ccccc34)cc2)sc1-c1cc(C(=O)NC2CCCCC2)n[nH]1	inactive	> 32 µg/mL	inactive	inactive	> 32	inactive	40.8	inactive	6.1		inactive	19.4	> 32 µg/mL	inactive					inactive	
Cc1nc(-c2ccc(I)cc2)sc1-c1cc(C(=O)NN2CCOCC2)n[nH]1	> 32 µg/mL	> 32 µg/mL	> 32 µg/mL	inactive	> 32	inactive	3.5		10.1	8.4	inactive	15.7	> 32 µg/mL	inactive	2.8					
CCOC(=O)c1cc(-c2sc(-c3ccc(I)cc3)nc2C)[nH]n1	> 32 µg/mL	> 32 µg/mL	> 32 µg/mL	inactive	> 32	inactive	7.8		16.6	15.1	inactive	16.4	> 32 µg/mL	inactive	6.6					
Cc1nc(-c2ccc(-c3ccccc3)cc2)sc1-c1cc(C(=O)NC2CCCCC2)n[nH]1	> 32 µg/mL	> 32 µg/mL	> 32 µg/mL	inactive	> 32	inactive			6.6	6.9	inactive	84.9	inactive	inactive	2.9			inactive		
CCCCc1ccc(NC(=O)c2cc(-c3sc(-c4ccc(-c5ccccc5)cc4)nc3C)[nH]n2)cc1	> 32 µg/mL	> 32 µg/mL	> 32 µg/mL	inactive	> 32	inactive	13.5		5.6	3.3	inactive	9.5	> 32 µg/mL	inactive	4.1					
Cc1nc(-c2ccc(-c3ccccc3)cc2)sc1-c1cc(C(=O)NCC2CCCCC2)n[nH]1	inactive	inactive	inactive	inactive	> 32	inactive		inactive			inactive	4.1	inactive	inactive		inactive		inactive	inactive	
